Values joined by “and” are separate entries in the source; they are usually repeats but may differ in a detail not shown here. Equal values may be shown once.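 Assay format: 96-well plates, 48-hour exposure. The concentration for 50% growth inhibition is given as GI50. At the TGI there is no net growth.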
Legend:
Assay in all cases: NCI-60 cell line screen, 48 h
786-0 renal = tested on: 786-0 renal
LXFL 529 NSCLC = tested on: LXFL 529 NSCLC
SK-MEL-28 melanoma = tested on: SK-MEL-28 melanoma
SF-539 CNS = tested on: SF-539 CNS
COLO 205 colon = tested on: COLO 205 colon
KM20L2 colon = tested on: KM20L2 colon
DMS 273 small cell lung = tested on: DMS 273 small cell lung
M19-MEL melanoma = tested on: M19-MEL melanoma
NCI-H226 lung = tested on: NCI-H226 lung
SNB-78 CNS = tested on: SNB-78 CNS
CAKI-1 renal = tested on: CAKI-1 renal
HS 578T breast = tested on: HS 578T breast
BT-549 breast = tested on: BT-549 breast

SMILES	TGI (786-0 renal)	TGI (LXFL 529 NSCLC) [µM]	TGI (SK-MEL-28 melanoma)	TGI (SF-539 CNS)	TGI (COLO 205 colon)	TGI (KM20L2 colon) [µM]	TGI (DMS 273 small cell lung) [µM]	TGI (M19-MEL melanoma) [µM]	TGI (NCI-H226 lung)	TGI (SNB-78 CNS) [µM]	TGI (CAKI-1 renal) [µM]	TGI (HS 578T breast) [µM]	TGI (BT-549 breast)	GI50 (SK-MEL-28 melanoma) [µM]	GI50 (SF-539 CNS) [µM]
CCCC(=O)N[C@@H](Cc1cc(I)c(O)c(I)c1)C(=O)NCCCNCCCCNCCCNC(=O)[C@@H](N)CCCN=C(N)N	> 100 µM	> 100	> 100 µM	> 100 µM	> 100 µM	> 100	> 100	> 100	> 100 µM	–	–	–	–	–	–
CC(=O)/C=C/c1c[nH]c(=O)[nH]c1=O	–	–	504 µM	601 µM	395 µM	508	324	771	565 µM	756	178	–	–	–	–
Cc1ccc(S(=O)(=O)OCC23CCC(C4CC42)C2CC23)cc1 (stereo not given)	> 100 µM	> 100	> 100 µM	–	> 100 µM	> 100	> 100	> 100	> 100 µM	–	> 100	–	–	–	–
C=C1CC(CNc2cc(Cl)nc(N)n2)C1	> 100 µM	–	> 100 µM	> 100 µM	> 100 µM	–	–	–	> 100 µM	–	> 100	> 100	> 100 µM	–	–
COc1cccc2c1C(=O)c1ccc3cc(CO)cc(O)c3c1C2=O	4.24 µM	–	5.61 µM	1.44 µM	3.32 µM	–	–	–	5.54 µM	–	7.18	9.59	6.31 µM	–	–
CCCCCC(/C=N/NC(N)=S)C(O)(C(F)(F)F)C(F)(F)F (stereo not given)	> 10 µM	–	> 10 µM	> 10 µM	> 10 µM	–	–	–	> 10 µM	–	> 10	> 10	> 10 µM	–	–
CCCN(CCC)C(=O)Cc1c2n(c3ccccc13)Cc1ccccc1-2	> 100 µM	> 100	> 100 µM	> 100 µM	> 100 µM	> 100	> 100	> 100	> 100 µM	> 100	> 100	–	–	–	–
CC1(C)SC2C(NC(=O)Cc3ccccc3)C(=O)N2C1C(=O)O (stereo not given)	> 100 µM	–	> 100 µM	> 100 µM	> 100 µM	–	–	–	> 100 µM	–	> 100	> 100	> 100 µM	–	–
O=[N+]([O-])c1cccc2nc3ccccc3c(NCCNCCO)c12	0.0259 µM and 0.121 µM	–	0.177 µM and 0.202 µM	0.136 µM and 0.0384 µM	0.0106 µM and 0.0213 µM	–	–	–	0.0495 µM and 0.0261 µM	–	0.088	0.111	0.0273 µM and 0.0259 µM	0.0239	0.0116
CCOC(=O)CC[C@@H](NC(=O)c1ccc(NCc2ccc3nc(OC)c(OC)nc3c2)cc1)C(=O)OCC	> 100 µM	–	22.8 µM	45.8 µM	69.4 µM	–	–	–	> 100 µM	–	> 100	> 80.9	> 100 µM	–	–
CC(=O)O/C(=C(/C#N)C(=O)O)C1C(C(=O)O)C(c2ccccc2[N+](=O)[O-])C=C(c2ccco2)N1c1ccncc1 (stereo not given)	6.62 µM	–	23.7 µM	3.89 µM	7.82 µM	–	–	–	18.9 µM	–	14.1	42	16.3 µM	–	–
N#Cc1nc(Cc2ccccc2)oc1N	> 100 µM	–	> 100 µM	> 100 µM	> 100 µM	–	–	–	> 100 µM	–	> 100	> 100	> 100 µM	–	–
CC1(C)OC[C@@]2([C@@H]3CC[C@@H](C3)C2(C)C)N1O	> 100 µM	–	> 100 µM	> 100 µM	> 100 µM	–	–	–	> 100 µM	–	> 100	> 100	> 100 µM	–	–
Cc1cc2c(cc1Cl)Sc1nnc(C)n1S2(=O)=O	44.5 µM	–	31.5 µM	36.4 µM	30.7 µM	–	–	–	> 100 µM	–	29.9	79.7	29.7 µM	–	–
CCOC(=O)C1(Cc2ccccc2)CCN(C(=O)c2ccccc2)C2C1C2(Cl)Cl (stereo not given)	44.2 µM	–	51.6 µM	38.5 µM	35.9 µM	–	–	–	63.4 µM	–	75	71.5	62.2 µM	–	–
Cc1ccc(NC(=S)NNC(=O)c2cc(-c3ccccc3)nc3ccccc23)cc1C	33.7 µM	–	78.8 µM	40.3 µM	34.2 µM	–	–	–	90.1 µM	–	> 100	> 100	44.2 µM	–	–
CCOC(=O)c1cc2cc(CSc3ccccc3)ccc2oc1=O	> 100 µM	–	> 100 µM	> 100 µM	> 100 µM	–	–	–	> 100 µM	–	> 100	> 100	> 100 µM	–	–
O=C(NCCCCNCCCNC(=O)C(F)(F)F)C(F)(F)F	> 100 µM	–	> 100 µM	> 100 µM	> 100 µM	–	–	–	> 100 µM	–	> 100	> 100	> 100 µM	–	–
O=[N+]([O-])C(=C/C1CCCCC1)/C(=C\C1CCCCC1)[N+](=O)[O-]	4.11 µM	–	24.7 µM	9.4 µM	9.29 µM	–	–	–	17.9 µM	–	11.1	18.4	12.5 µM	–	–
O=C(c1ccc(Cl)cc1)N(C(=S)N1CCN(c2ccccc2)CC1)c1ccccc1	> 100 µM	> 100	> 100 µM	> 100 µM	> 100 µM	> 100	> 100	> 100	> 100 µM	> 100	> 100	–	–	–	–
C(/C=N/NC1=NCCN1)=N\NC1=NCCN1	> 100 µM	–	> 100 µM	> 100 µM	> 100 µM	–	–	–	> 100 µM	–	> 100	> 100	> 100 µM	–	–
CCO[C@H]1C[C@@H](c2ccccc2)[C@]2(C)C[C@H](C(=O)OC)ON2O1	> 100 µM	–	> 100 µM	> 100 µM	> 100 µM	–	–	–	> 100 µM	–	> 100	> 100	> 100 µM	–	–
C/C=C/[C@@H]1O[C@H](CC#C[Si](C)(C)C)[C@@]2(C=O)C(C)=CC[C@H](C(C)C)[C@@H]12	31.3 µM	–	47.8 µM	49.7 µM	66.1 µM	–	–	–	41.7 µM	–	5.13	> 100	49.7 µM	–	–
Nc1ccccc1Sc1ccc(Cl)cc1	–	> 100	64 µM	> 100 µM	44.1 µM	42.9	72.5	60.7	26.2 µM	46.6	–	–	–	–	–
COC(=O)c1ccc(NCC2=CC(=O)c3ccccc3C2=O)cc1	43.2 µM	–	33.8 µM	63.6 µM	31.6 µM	–	–	–	39.2 µM	–	28	76.4	42.2 µM	–	–
CC1(C)OC2CN(C(=O)OCc3ccccc3)C(CO)C2O1 (stereo not given)	> 100 µM	–	> 100 µM	> 100 µM	> 100 µM	–	–	–	> 100 µM	–	> 100	> 100	> 100 µM	–	–

Source: PubChem BioAssay (NCI)
